Species: Rattus norvegicus
Assay: Open TG-GATES - Regimen: Single
Type: toxicity, organism-based, Sprague-Dawley
Set-up: regimen Single, gender Male, age 6 weeks
Conditions: in vivo, po, 20 mg/kg, route gavage, dose level Low; for APTT / Bas / Eos / Fbg / Hb / Ht / Lym / MCH / MCHC / MCV / Mono / Neu / PT / Plat / RBC / Ret / WBC: tissue Blood; for KIDNEY_TOTAL: tissue Kidney; for LIVER: tissue Liver; for A/G / ALP / ALT / AST / BUN / CRE / Ca / Cl / DBIL / GLC / IP / K / LDH / Na / PL / RALB / TBIL / TC / TG / TP / gamma-GTP: tissue Plasma

## CN(CCOc1ccc(CC2SC(=O)NC2=O)cc1)c1ccccn1.O=C(O)/C=C\C(=O)O (centres undefined) [ROSIGLITAZONE MALEATE]
3 h
  TERMINAL_BW: 211.2 g
  APTT: 16 s
  Bas: 0%
  Eos: 0.6%
  Fbg: 208.6 mg/dL
  Hb: 13.1 g/dL
  Ht: 39.8%
  Lym: 75.6%
  MCH: 21.5 pg
  MCHC: 32.9%
  MCV: 65.3 fL
  Mono: 9.2%
  Neu: 14.2%
  PT: 12.2 s
  Plat: 111.6 x10_4/uL
  RBC: 609 x10_4/ul
  Ret: 8.8%
  WBC: 102 x10_2/uL
  KIDNEY_TOTAL: 0.8 g
  LIVER: 10.3 g
  A/G: 2.1
  ALP: 1342 IU/L
  ALT: 38.8 IU/L
  AST: 70.4 IU/L
  BUN: 13.2 mg/dL
  CRE: 0.4 mg/dL
  Ca: 11.2 mg/dL
  Cl: 103.2 meq/L
  DBIL: 0.016 mg/dL
  GLC: 179.2 mg/dL
  IP: 8.4 mg/dL
  K: 4.3 meq/L
  LDH: 104 IU/L
  Na: 139.6 meq/L
  PL: 151.2 mg/dL
  RALB: 3.6 g/dL
  TBIL: 0.052 mg/dL
  TC: 84.4 mg/dL
  TG: 113.4 mg/dL
  TP: 5.4 g/dL
  gamma-GTP: 0.6 IU/L
6 h
  TERMINAL_BW: 199.3 g
  APTT: 16.4 s
  Bas: 0%
  Eos: 0.8%
  Fbg: 208.8 mg/dL
  Hb: 13.1 g/dL
  Ht: 39.8%
  Lym: 78%
  MCH: 21.3 pg
  MCHC: 32.8%
  MCV: 64.9 fL
  Mono: 6.4%
  Neu: 15.2%
  PT: 12.1 s
  Plat: 118.2 x10_4/uL
  RBC: 614.6 x10_4/ul
  Ret: 8.5%
  WBC: 114.2 x10_2/uL
  KIDNEY_TOTAL: 0.7 g
  LIVER: 8.7 g
  A/G: 2.5
  ALP: 1335.2 IU/L
  ALT: 37 IU/L
  AST: 73 IU/L
  BUN: 9.2 mg/dL
  CRE: 0.4 mg/dL
  Ca: 11.1 mg/dL
  Cl: 103.6 meq/L
  DBIL: 0.014 mg/dL
  GLC: 184.6 mg/dL
  IP: 9.6 mg/dL
  K: 4.3 meq/L
  LDH: 72.8 IU/L
  Na: 138.2 meq/L
  PL: 135.2 mg/dL
  RALB: 3.7 g/dL
  TBIL: 0.048 mg/dL
  TC: 82.4 mg/dL
  TG: 73.8 mg/dL
  TP: 5.2 g/dL
  gamma-GTP: 0.8 IU/L
9 h
  TERMINAL_BW: 198.4 g
  APTT: 16.5 s
  Bas: 0%
  Eos: 1%
  Fbg: 219 mg/dL
  Hb: 12.7 g/dL
  Ht: 38.2%
  Lym: 73%
  MCH: 21.7 pg
  MCHC: 33.3%
  MCV: 65.1 fL
  Mono: 6%
  Neu: 20.4%
  PT: 12.2 s
  Plat: 118 x10_4/uL
  RBC: 586.6 x10_4/ul
  Ret: 9%
  WBC: 90.8 x10_2/uL
  KIDNEY_TOTAL: 0.7 g
  LIVER: 8.5 g
  A/G: 2.4
  ALP: 1181.6 IU/L
  ALT: 35.2 IU/L
  AST: 64.4 IU/L
  BUN: 12.2 mg/dL
  CRE: 0.3 mg/dL
  Ca: 11 mg/dL
  Cl: 104.6 meq/L
  DBIL: 0.01 mg/dL
  GLC: 192.4 mg/dL
  IP: 10.3 mg/dL
  K: 4.2 meq/L
  LDH: 80.6 IU/L
  Na: 140 meq/L
  PL: 130.6 mg/dL
  RALB: 3.8 g/dL
  TBIL: 0.044 mg/dL
  TC: 78.4 mg/dL
  TG: 57.6 mg/dL
  TP: 5.3 g/dL
  gamma-GTP: 0.8 IU/L
24 h
  TERMINAL_BW: 217.5 g
  APTT: 15.7 s
  Bas: 0%
  Eos: 1%
  Fbg: 232 mg/dL
  Hb: 12.8 g/dL
  Ht: 39%
  Lym: 74.2%
  MCH: 21.3 pg
  MCHC: 32.9%
  MCV: 64.8 fL
  Mono: 8%
  Neu: 17%
  PT: 11.4 s
  Plat: 119.2 x10_4/uL
  RBC: 602.6 x10_4/ul
  Ret: 7.1%
  WBC: 95 x10_2/uL
  KIDNEY_TOTAL: 0.7 g
  LIVER: 11.3 g
  A/G: 2.4
  ALP: 1603.4 IU/L
  ALT: 34.2 IU/L
  AST: 66.2 IU/L
  BUN: 16 mg/dL
  CRE: 0.4 mg/dL
  Ca: 11.3 mg/dL
  Cl: 104.2 meq/L
  DBIL: 0.014 mg/dL
  GLC: 190.2 mg/dL
  IP: 7.7 mg/dL
  K: 4.3 meq/L
  LDH: 102 IU/L
  Na: 141 meq/L
  PL: 153.4 mg/dL
  RALB: 3.9 g/dL
  TBIL: 0.034 mg/dL
  TC: 87.4 mg/dL
  TG: 128.2 mg/dL
  TP: 5.5 g/dL
  gamma-GTP: 1 IU/L
